Measurements published in patent US10034886B2, “GLP-1 receptor modulators” (Celgene International II SÀRL, priority 2014, dated 2018).

Each compound was assayed against T1, GLP-1R (Homo sapiens, UniProt P43220) (assay: EC20 GLP-1(9-36) PAM cAMP assay: dose response of compound in the presence of fixed concentration of GLP-1(9-36)). Settings: GLP-1R CRE-bla CHO-K1 cells, compound dose response with fixed concentration of GLP-1(9-36), read-out: EC20 GLP-1(9-36) PAM EC50.
T1 construct: host or cells: GLP-1R CRE-bla CHO-K1 cells
Assay type: cell-based
Outline: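 GLP-1R CRE-bla CHO-K1 cells treated 30 min at 37 °C with 12-point compound dose response plus fixed EC20 GLP-1(9-36), with IBMX, in HBSS/HEPES/0.1% BSA pH 7.4. Total cAMP measured by luminescent detection against standard curve; EC50 and Emax from non-linear regression.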

T1 sequence (P43220 24-463): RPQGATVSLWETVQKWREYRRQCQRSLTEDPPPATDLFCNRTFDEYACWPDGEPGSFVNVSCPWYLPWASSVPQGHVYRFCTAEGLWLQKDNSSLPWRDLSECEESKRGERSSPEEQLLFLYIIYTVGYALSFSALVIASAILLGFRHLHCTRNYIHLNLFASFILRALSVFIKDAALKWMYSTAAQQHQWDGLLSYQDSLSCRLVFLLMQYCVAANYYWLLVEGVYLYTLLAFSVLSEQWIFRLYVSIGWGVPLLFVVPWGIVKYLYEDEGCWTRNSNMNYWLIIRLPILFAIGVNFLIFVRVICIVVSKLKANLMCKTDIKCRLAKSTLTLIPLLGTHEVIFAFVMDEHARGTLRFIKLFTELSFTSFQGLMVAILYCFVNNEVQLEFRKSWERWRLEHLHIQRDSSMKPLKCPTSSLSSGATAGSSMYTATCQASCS
T1 sequence (P01275 100-127 partner limits assumed): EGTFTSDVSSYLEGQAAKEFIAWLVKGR

EC50 | SMILES
< 800 nM | Cc1cccc(C2CCN(c3cnc(-c4ccc(C[C@H](NC(=O)c5ccc(C(C)(C)C)s5)C(=O)N5CC(C(=O)O)C5)cc4)nc3)CC2)c1 [Compound 1476]
< 800 nM | CC[C@H]1CC[C@H](c2ccc(-c3cnc(-c4ccc(C[C@H](NC(=O)c5ccc(C(C)(C)C)cc5)C(=O)O)cc4)nc3)cc2)CC1 [Compound 1366]

Continued, compound first:

SMILES | EC50
CCC[C@H]1CC[C@H](C2CCN(c3cnc(-c4ccc(CC(NC(=O)c5ccc(C(C)(C)C)s5)C(=O)NS(=O)(=O)CC)cc4)nc3)CC2)CC1 (stereo partly drawn) [Compound 1539] | 2500 to 5000 nM
COc1ccc(C(=O)N[C@@H](Cc2ccc(-c3ncc(-c4ccc(OCCCC(C)C)cc4)cn3)cc2)C(=O)N2CC(C(=O)O)C2)cc1 [Compound 1229] | 2500 to 5000 nM
CCC[C@H]1CC[C@H](C2CCN(c3cnc(-c4ccc(C[C@H](NC(=O)c5ccc(C(C)(C)C)s5)C(=O)NS(C)(=O)=O)cc4)nc3)CC2)CC1 [Compound 1438, 5-(tert-butyl)-N—((S)-1-(methylsulfonamido)-1-oxo-3-(4-(5-(4-((1s,4r)-4-propylcyclohexyl)piperidin-1-yl)pyrimidin-2-yl)phenyl)propan-2-yl)thiophene-2-carboxamide] | < 800 nM
CC[C@H]1CC[C@H](c2ccc(-c3cnc(-c4ccc(C[C@H](NC(=O)c5ccc(Cl)cc5)C(=O)O)cc4)nc3)cc2)CC1 [Compound 1386] | 800 to 2500 nM
CC[C@H]1CC[C@H](c2ccc(-c3cnc(-c4ccc(C[C@H](NC(=O)c5ccc(C(C)(C)C)s5)C(=O)NCC(=O)O)cc4)nc3)cc2)CC1 [Compound 1323] | < 800 nM
CCC[C@H]1CC[C@H](C2CCN(c3cnc(-c4ccc(C[C@H](NC(=O)c5ccc(C(C)(C)C#N)s5)C(=O)N5CC(C(=O)O)C5)cc4)nc3)CC2)CC1 [Compound 1513] | < 800 nM

Same assay, conditions: dose response of compound in presence of fixed concentration of GLP-1(9-36), GLP-1R CRE-bla CHO-K1 cells, read-out: EC20 GLP-1(9-36) PAM EC50

EC50 | SMILES
2500 to 5000 nM | CCCCCCCOc1ccc(-c2cnc(-c3ccc(C[C@H](NC(=O)c4ccc(C(C)(C)C#N)cc4)C(=O)N[C@H](C)C(=O)O)cc3)nc2)cc1 [Compound 835]
800 to 2500 nM | CCCCCCCOc1ccc(-c2cnc(-c3ccc(C[C@H](NC(=O)c4ccc(CC(C)C)s4)C(=O)N4CC(C(=O)O)C4)cc3)nc2)cc1 [Compound 1119]
2500 to 5000 nM | CC(C)(C)c1ccc(C(=O)N[C@@H](Cc2ccc(-c3ncc(-c4nc(-c5ccc(Cl)cc5)no4)cn3)cc2)C(=O)NCCC(=O)O)cc1 [Compound 751]
800 to 2500 nM | CC(C)(C)c1ccc(-c2cnc(-c3ccc(C[C@H](NC(=O)c4ccc(C(C)(C)C)s4)C(=O)N4CC[C@H](C(=O)O)C4)cc3)nc2)cc1 [Compound 768]
< 800 nM | CC(C)(C)c1ccc(C(=O)N[C@@H](Cc2ccc(-c3ncc(-c4ccc(-c5ccccc5)cc4)cn3)cc2)C(=O)N2CCC[C@H]2C(=O)O)s1 [Compound 1124]
2500 to 5000 nM | CCCCCCCOc1ccc(-c2cnc(-c3ccc(C[C@H](NC(=O)c4ccc(OCCC)cc4)C(=O)N4CCC[C@H]4C(=O)O)cc3)nc2)cc1 [Compound 1071]
800 to 2500 nM | CCCCCCCOc1ccc(-c2cnc(-c3ccc(C[C@H](NC(=O)c4ccn(C(C)(C)C)c4)C(=O)N[C@H](C)C(=O)O)cc3)nc2)cc1 [Compound 838]
< 800 nM | CCCCCCCOc1ccc(-c2cnc(-c3ccc(C[C@H](NC(=O)c4ccc(C(C)(C)C)s4)C(=O)N[C@H](C(=O)O)[C@H](O)c4ccccc4)cc3)nc2)cc1 [Compound 642]
800 to 2500 nM | CCCCCCCOc1ccc(-c2cnc(-c3ccc(C[C@H](NC(=O)c4ccc(C(C)(C)C)s4)C(=O)NC(C)(C)C(=O)O)cc3)nc2)cc1 [Compound 406]
< 800 nM | CCCCCCCCOc1ccc(-c2cnc(-c3ccc(C[C@H](NC(=O)c4ccc(C(C)(C)C)s4)C(=O)N4CC(C(=O)O)C4)cc3)nc2)cc1 [Compound 778]
< 800 nM | CCCCCCCOc1ccc(-c2cnc(-c3ccc(C[C@H](NC(=O)c4ccc(C(C)(C)C)cc4)C(=O)N[C@@H](CC(=O)O)C(=O)NC)cc3)nc2)cc1 [Compound 580]
800 to 2500 nM | CCc1ccc(/C=C/c2cnc(-c3ccc(C[C@H](NC(=O)c4ccc(C(C)(C)C)s4)C(=O)N4CC(C(=O)O)C4)cc3)nc2)cc1 [Compound 1092]
800 to 2500 nM | CC(C)(C)c1ccc(C(=O)N[C@@H](Cc2ccc(-c3ncc(-c4ccc(OCCC5CCCCC5)cc4)cn3)cc2)C(=O)NCCC(=O)O)cc1 [Compound 474, (S)-3-(2-(4-(tert-butyl)benzamido)-3-(4-(5-(4-(2-cyclohexylethoxy)phenyl)-pyrimidin-2-yl)phenyl)propanamido)propanoic acid]
800 to 2500 nM | Cc1ccc(/C=C/c2cnc(-c3ccc(C[C@H](NC(=O)c4ccc(C(C)(C)C)s4)C(=O)N4CCC[C@H]4C(=O)O)cc3)nc2)cc1 [Compound 1125]
800 to 2500 nM | CCCCCCCOc1ccc(-c2cnc(-c3ccc(C[C@H](NC(=O)c4ccc(CC(C)C)s4)C(=O)N[C@H](C)C(=O)O)cc3)nc2)cc1 [Compound 813]
< 800 nM | CC[C@H]1CC[C@H](c2ccc(-c3cnc(-c4ccc(C[C@H](NC(=O)c5ccc(C(C)(C)C)s5)C(=O)N5CC(C(=O)O)C5)cc4)nc3)cc2)CC1 [Compound 1057, 1-((S)-2-(5-(tert-butyl)thiophene-2-carboxamido)-3-(4-(5-(4-((1r,4r)-4-ethylcyclohexyl)phenyl)pyrimidin-2-yl)phenyl)propanoyl)azetidine-3-carboxylic acid]
800 to 2500 nM | CCCCCCCOc1ccc(-c2cnc(-c3ccc(C[C@H](NC(=O)c4ccc(C(C)(C)C)cc4)C(=O)N[C@@H](CC(=O)N[C@@H](C)C(=O)O)C(=O)O)cc3)nc2)cc1 [Compound 483]
< 800 nM | CCCCCCCOc1ccc(-c2cnc(-c3ccc(C[C@H](NC(=O)c4ccc(C(C)(C)C)s4)C(=O)NC(CCCC)C(=O)O)cc3)nc2)cc1 (stereo partly drawn) [Compound 609]
800 to 2500 nM | CCCCCCCOc1ccc(-c2cnc(-c3ccc(C[C@H](NC(=O)c4ccc(C(C)(C)C)s4)C(=O)N4CC(C(=O)NS(=O)(=O)CC(=O)O)C4)cc3)nc2)cc1 [Compound 649]

Continued, compound first:

SMILES | EC50
CCc1ccc(-c2ccc(-c3cnc(-c4ccc(C[C@H](NC(=O)c5ccc(C(C)(C)C)s5)C(=O)N5CC(C(=O)O)C5)cc4)nc3)c(F)c2)cc1 [Compound 1189] | < 800 nM
CCCCCCCCc1noc(-c2cnc(-c3ccc(C[C@H](NC(=O)c4ccc(C(C)(C)C)cc4)C(=O)NCCC(=O)O)cc3)nc2)n1 [Compound 755] | 2500 to 5000 nM
CCCCCCCOc1ccc(-c2cnc(-c3ccc(C[C@H](NC(=O)c4ccc(C(C)(C)C)s4)C(=O)NS(=O)(=O)CC(=O)O)cc3)nc2)cc1 [Compound 434] | 800 to 2500 nM
CC(C)CCCCOc1ccc(-c2cnc(-c3ccc(C[C@H](NC(=O)c4ccc(C(C)(C)C)cc4)C(=O)N[C@H](C)C(=O)O)cc3)nc2)cc1 [Compound 792] | 800 to 2500 nM
CCCCCCCOc1ccc(-c2cnc(-c3ccc(C[C@H](NC(=O)c4ccc(C(C)(C)C)s4)C(=O)N4CC(CCN)C4)cc3)nc2)cc1 [Compound 989] | 800 to 2500 nM
CC(C)(C)c1ccc(C(=O)N[C@@H](Cc2ccc(-c3ncc(-c4ccc(OC5CCCC5)cc4)cn3)cc2)C(=O)NC(C(=O)O)C(O)c2ccccc2)s1 (stereo partly drawn) [Compound 929] | 5000 to 10000 nM
CCCCCCCOc1ccc(-c2cnc(-c3ccc(C[C@H](NC(=O)c4ccc(C(C)(C)C)s4)C(=O)NCC(=O)NCC(=O)O)cc3)nc2)cc1 [Compound 486] | < 800 nM
Cc1ccc(-c2ccc(-c3cnc(-c4ccc(C[C@H](NC(=O)c5ccc(C(C)(C)C)s5)C(=O)N[C@H](C)C(=O)O)cc4)nc3)c(F)c2)cc1 [Compound 1172] | 800 to 2500 nM
CCCCCCCOc1ccc(-c2cnc(-c3ccc(C[C@H](NC(=O)/C=C/c4ccc(OC)cc4)C(=O)N4CC(C(=O)O)C4)cc3)nc2)cc1 [Compound 1103] | 800 to 2500 nM
CCCCCCCOc1ccc(-c2cnc(-c3ccc(C[C@H](NC(=O)c4ccc(O)c(F)c4)C(=O)N4CC[C@H](C(=O)O)C4)cc3)nc2)cc1 [Compound 1096] | 800 to 2500 nM
CCCCCCCOc1ccc(-c2cnc(-c3ccc(CC(NC(=O)c4ccc(C(C)(C)C)s4)C(=O)N[C@@H](CSSC[C@H](N)C(=O)O)C(=O)O)cc3)nc2)cc1 (stereo partly drawn) [Compound 426] | 800 to 2500 nM
CCCCCCCOc1ccc(-c2ccc(-c3ccc(C[C@H](NC(=O)c4ccc(C(C)(C)C)s4)C(=O)N[C@H](C)C(=O)O)cc3)nc2)cc1 [Compound 811] | 800 to 2500 nM
CCCCCCCOc1ccc(-c2cnc(-c3ccc(C[C@H](NC(=O)c4ccc(CCC)cc4)C(=O)N[C@H](C)C(=O)O)cc3)nc2)cc1 [Compound 830] | 5000 to 10000 nM
CCCCCCCOc1ccc(-c2cnc(-c3ccc(C[C@H](NC(=O)c4ccc(C(C)(C)C)cc4)C(=O)N[C@@H](CC(=O)O)C(N)=O)cc3)nc2)cc1 [Compound 579] | < 800 nM
CC(C)(C)c1ccc(COc2ccc(-c3cnc(-c4ccc(C[C@H](NC(=O)c5ccc(C(C)(C)C)cc5)C(=O)NCCC(=O)O)cc4)nc3)cc2)cc1 [Compound 713] | 800 to 2500 nM
CCCCCCCOc1ccc(-c2cnc(-c3ccc(C[C@H](NC(=O)c4ccc(C(C)(C)C)cc4)C(=O)N[C@@H](CC(=O)N[C@@H](CO)C(=O)O)C(=O)O)cc3)nc2)cc1 [Compound 481] | 800 to 2500 nM
CCOc1cc(-c2cnc(-c3ccc(C[C@H](NC(=O)c4ccc(C(C)(C)C)s4)C(=O)N[C@H](C)C(=O)O)cc3)nc2)cc(C(F)(F)F)c1 [Compound 1036] | 2500 to 5000 nM
CCCCCCCOc1ccc(-c2cnc(-c3ccc(C[C@H](NC(=O)c4ccc(C(C)(C)C)s4)C(=O)N(CC)CCO)cc3)nc2)cc1 [Compound 969] | 2500 to 5000 nM
CC(C)COc1ccc(-c2cnc(-c3ccc(C[C@H](NC(=O)c4ccc(C(C)(C)C)s4)C(=O)NC(C(=O)O)C(O)c4ccccc4)cc3)nc2)cc1 (stereo partly drawn) [Compound 934] | 5000 to 10000 nM
CCCCCCCOc1ccc(-c2cnc(-c3ccc(C[C@H](NC(=O)c4ccc(C(C)(C)C)s4)C(=O)N4CC[C@H]4C(=O)O)cc3)nc2)cc1 [Compound 668] | 800 to 2500 nM
CC(C)N(C(=O)c1ccc(-c2cnc(-c3ccc(C[C@H](NC(=O)c4ccc(C(C)(C)C)s4)C(=O)N[C@H](C)C(=O)O)cc3)nc2)cc1)C(C)C [Compound 1028] | 2500 to 5000 nM
